Results taken from patent US12636299B2, “Terpenoid derivatives, pharmaceutical preparations containing these derivatives and their use in neuroprotection” (UNIVERZITA PALACKEHO V OLOMOUCI, priority 2020, dated 2026).

Tests used:
[1] = test system: SH-SY5Y human neuroblastoma cell line; experiment: Cytotoxicity, Calcein AM viability assay on neuron-like SH-SY5Y cells; type: cell-based; details: 24 h
Description: The SH-SY5Y human neuroblastoma cell line obtained from ECACC (The European Collection of Authenticated Cell Cultures) was cultivated in Dulbecco's modified Eagle's Medium and Ham's F12 Nutrient Mixture (DMEM:F-12, 1:1), supplemented with 10% fetal bovine serum (FBS) and 1% penicillin and streptomycin at 37° C. in a humidified atmosphere 5% CO2, 95% humidity in passage limit up to ECACC+20. The assay was performed in 96-well microplate with 7000 SH-SY5Y cells per well. After 48 h, old DMEM/F12 media was removed by fresh media containing tested compounds at 0.1, 1 and 10 μM concentrations for 24 h. Glial cell line A-172 purchased from ATCC and grown in same conditions as SH-SY5Y cell line. A-172 cells were seeded in density 2000 cells per well and growing medium was replaced by treatment medium containing tested compounds in 0.1, 1 and 10 μM concentration; or in higher concentrations for R-LA or NAC positive controls for 48 hours. All tested compounds dissolved in DMSO were added into the medium. The maximum concentration of DMSO in media was kept below 0.1% (v/v). The cell viability was measured by Calcein AM (1 mg/ml ThermoFisher) viability assay. Solution of Calcein AM in PBS (0.75 μM) was pipetted to cells and incubated for 50 min. After that the fluorescence was measured at 488/517 nm (excitation/emission) using microplate reader Infinite M200 (TECAN). Calcein AM assay is based on the dye-intracellular-esterase cleavage of non-fluorescent dye (Calcein AM) by living cells to fluorescent dye (Calcein), while dying cells lose such ability. The values in Table 2 show the % of viability compared to control for all tested compounds. The results from DMSO control (medium with DMSO, <0.1% (v/v)) was postulated as 100% viability (see the first line of Table 2).

glial A-172 cells [2] = experiment: Cytotoxicity, Calcein AM viability assay on glial A-172 cells; type: cell-based, human; details: NAC at 1000 μM
Description: The assay was performed in 96-well microplate with 7000 SH-SY5Y cells per well. After 48 h, old DMEM/F12 media was removed by fresh media containing tested compounds at 0.1, 1 and 10 μM concentrations for 24 h. Glial cell line A-172 purchased from ATCC and grown in same conditions as SH-SY5Y cell line. […] All tested compounds dissolved in DMSO were added into the medium. The maximum concentration of DMSO in media was kept below 0.1% (v/v). The cell viability was measured by Calcein AM (1 mg/ml ThermoFisher) viability assay. Solution of Calcein AM in PBS (0.75 μM) was pipetted to cells and incubated for 50 min. After that the fluorescence was measured at 488/517 nm (excitation/emission) using microplate reader Infinite M200 (TECAN). Calcein AM assay is based on the dye-intracellular-esterase cleavage of non-fluorescent dye (Calcein AM) by living cells to fluorescent dye (Calcein), while dying cells lose such ability.

[3] = test system: human neuroblastoma cell line SH-SY5Y; experiment: Viability of differentiated SH-SY5Y in salsolinol-induced model of PD (Calcein AM); type: cell-based; details: for Neuroprotective effect (% of control): difference between 800 μM SAL and co-treatment group means, 24 hours; for effect on SH-SY5Y viability in salsolinol model, in words: 800 μM salsolinol, comparison with NAC
Description: Similarly, as in previous “Safety test”, the SH-SY5Y cells were seeded at density 7000 cells/well. After 48 h differentiation, old 1% DMEM/F12 media was replaced by fresh media containing 800 μM salsolinol (SAL) and tested compounds in 0.1, 1 and 10 μM concentrations. N-acetylcystein were chosen as positive control. After 24 hours, the cell viability was measured by Calcein AM viability assay. The values in Table 2 show % of viability of all tested compounds relative to control. The control (medium with DMSO, <0.1% (v/v)) was postulated as 100% viability (see the first line of the table), while the SAL exposure lead to decrease of viability to 65.4±0.97%.

caspase-3,7 activity = experiment: Caspase-3,7 activity in salsolinol-induced model of PD on SH-SY5Y (Ac-DEVD-AMC); type: cell-based, human; details: for Caspase-3,7 activity (% of 800 μM SAL control): percentages of control (800 μM SAL = 100), 24 hour co-treatment; for reduction of caspase-3,7 activity, in words: 800 μM SAL, compounds 3 and 4 at 10 μM compared with NAC; for efficacy relative to positive controls (by used concentration): caspase-3,7 activity, salsolinol model
Description: Similarly, as shown in previous assay, cells grew on 96 multiwell plates at density 20000 cells per well underwent differentiation and treatment procedure for salsolinol model. After 24 hour co-treatment with salsolinol, caspase-3,7 (casp-3,7) activity as marker of apoptosis was quantified by its substrate Ac-DEVD-AMC according to Carrasco et al. (2003, BioTechniques, 34, 1064-1067). In this model, overall casp-3,7 activity induced by 800 μM SAL was consider as 100% and thus the reduction in casp-3,7 was observed after treatment with the protective terpenoid derivatives. As shown in Table 4 and FIG. 2, 800 μM SAL induced 2.9-fold increase.

[4] = test system: human neuron-like SH-SY5Y cells; experiment: 3NPA-induced model of Huntington's disease, neuron-like SH-SY5Y cells; type: cell-based; details: difference to 20 mM 3NPA, 48 h
Description: (§1) Before application of toxin 3-nitropropionic acid (3NPA) for mimicking Huntington's disease, the 3NPA was dissolved in water and neutralized by sodium hydroxide. SH-SY5Y cells were seeded in the same density and differentiated by the procedure shown above. Astrocyte cells A-172 were also seeded as described in previous section. Both cell lines were co-treated by 3NPA (20 mM for SH-SY5Y cells, […]) and tested compounds at 0.1, 1 and 10 μM concentration for 48 h.

astrocyte A-172 cells = experiment: 3NPA-induced model of Huntington's disease, astrocyte A-172 cells; type: cell-based, human; details: for Astro-protective effect (% of control): difference to 10 mM 3NPA, 48 h
Description: as §1

[5] = test system: superoxide radical formation; experiment: Oxidative stress (superoxide radical formation, DHE) in 3NPA-induced model on SH-SY5Y; type: cell-based, human; details: for Superoxide radical formation (oxidative stress) %: 20 mM 3NPA = 100%, 24 hours
Description: Similarly, to previous assay, cells grown on 96-multiwell plates at density 20000 cells per well underwent differentiation and treatment procedure with 3-nitropropionic acid (3NPA) in this model. After 24 hours of co-treatment with 20 mM 3NPA, superoxide radical's formation as a marker of oxidative stress was quantified by dihydroethidium according to Kim et al. (2017, J. Med. Food, 20, 140-151). Briefly, neuron-like SH-SY5Y cells were centrifuged at 500 g for 5 min and 30 s, then media were replaced by 10 μM DHE PBS solution and kept at room temperature for 30 min. After that, DHE was read at 500 nm/580 nm (excitation/emission) by Infinite M200 Pro (Tecan) microplate reader. DHE is cell permeable dye which is selective for superoxide radical detection. Overall oxidative stress achieved by 20 mM 3NPA was consider as 100% and thus the reduction in superoxide radical's formation (OS reducing effect) was determined. As shown in Table 6 and FIG. 2, 20 mM 3NPA induced 2.7-fold increase in superoxide radical's formation.

glial A-172 cells [6] = experiment: Cytotoxicity, Calcein AM viability assay on glial A-172 cells; type: cell-based, human; details: 48 hours

Structure (SMILES)	viability, percentage of DMSO control ([1]; 0.1 μM) [%]	viability, percentage of DMSO control ([1]; 1 μM) [%]	viability, percentage of DMSO control ([1]; 10 μM) [%]	effect on viability of astrocytes, in words (glial A-172 cells [2])	Neuroprotective effect (% of control) ([3]; 0.1 μM)	Neuroprotective effect (% of control) ([3]; 1 μM)	Neuroprotective effect (% of control) ([3]; 10 μM)	effect on SH-SY5Y viability in salsolinol model, in words [3]	Caspase-3,7 activity (% of 800 μM SAL control) (caspase-3,7 activity; 1 μM) [%]	Caspase-3,7 activity (% of 800 μM SAL control) (caspase-3,7 activity; 10 μM) [%]	reduction of caspase-3,7 activity, in words (caspase-3,7 activity)	efficacy relative to positive controls (by used concentration) (caspase-3,7 activity) [fold]	Neuro-protective effect (% of control) ([4]; 0.1 μM)	Neuro-protective effect (% of control) ([4]; 1 μM)	Neuro-protective effect (% of control) ([4]; 10 μM)	Astro-protective effect (% of control) (astrocyte A-172 cells; A-172, 0.1 μM)	Astro-protective effect (% of control) (astrocyte A-172 cells; A-172, 1 μM)	Astro-protective effect (% of control) (astrocyte A-172 cells; A-172, 10 μM)	Superoxide radical formation (oxidative stress) % ([5]; 0.1 μM) [%]	Superoxide radical formation (oxidative stress) % ([5]; 1 μM) [%]	further results
C=C(C(=O)OCc1ccncc1)C1CCC2(COC(C)=O)CCC3(C)C(CCC4C5(C)CCC(OC(C)=O)C(C)(C)C5CCC43C)C12 (stereo not drawn) [Compound 3, Pyridin-4-yl-methyl 3β,28-bis(acetyloxy)lup-20(30)-en-29-oate]	115.8	145.0	137.4	slight decrease in percentage of living cells	N/A (N/A = no protection)	33.10 % of control	21.50 % of control	better effect than 1000 μM NAC	73.7	55.6	comparable	10	N/A (N/A = no protection)	39.96 % of control	24.13 % of control	N/A (N/A = no protection)	11.98 % of control	N/A (N/A = no protection)	88.4	79.0	protective effect on astrocytes in 3NPA model, in words (astrocyte A-172 cells; A-172 cells, comparison with R-LA): positive effect comparable to R-LA control; OS reducing effect, in words ([5]; 10 μM, comparison with 100 μM NAC): even stronger activity toward oxidative stress; Superoxide radical formation (oxidative stress) % ([5]; 10 μM): 81.9%; viability, percentage of DMSO control (glial A-172 cells [6]; 0.1 μM): 95.5%; viability, percentage of DMSO control (glial A-172 cells [6]; 1 μM): 98.2%; viability, percentage of DMSO control (glial A-172 cells [6]; 10 μM): 71.7%
C=C(C(=O)OCc1cccnc1)C1CCC2(COC(C)=O)CCC3(C)C(CCC4C5(C)CCC(OC(C)=O)C(C)(C)C5CCC43C)C12 (stereo not drawn) [Compound 4, Pyridin-3-yl-methyl (3β)-3,28-bis(acetyloxy)lup-20(30)-en-29-oate]	99.9	146.1	142.5	slight decrease in percentage of living cells	N/A (N/A = no protection)	33.70 % of control	33.99 % of control	better effect than 1000 μM NAC	67.2	46.0	better	10	N/A (N/A = no protection)	32.36 % of control	28.98 % of control	7.38 % of control	3.25 % of control	N/A (N/A = no protection)	84.7	78.5	Superoxide radical formation (oxidative stress) % ([5]; 10 μM): 65.8%; viability, percentage of DMSO control (glial A-172 cells [6]; 0.1 μM): 104.2%; viability, percentage of DMSO control (glial A-172 cells [6]; 1 μM): 97.9%; viability, percentage of DMSO control (glial A-172 cells [6]; 10 μM): 83.6%
